The target of one data set is T1, 5-HT3 receptor (Rattus norvegicus, UniProt P35563).
T1 construct: S.D. male rats (weighing 200 to 350 g) were anesthetized; from tissue; host or cells: whole anesthetized S.D. male rats (in vivo; endogenous receptor)
T1 sequence (P35563 24-483): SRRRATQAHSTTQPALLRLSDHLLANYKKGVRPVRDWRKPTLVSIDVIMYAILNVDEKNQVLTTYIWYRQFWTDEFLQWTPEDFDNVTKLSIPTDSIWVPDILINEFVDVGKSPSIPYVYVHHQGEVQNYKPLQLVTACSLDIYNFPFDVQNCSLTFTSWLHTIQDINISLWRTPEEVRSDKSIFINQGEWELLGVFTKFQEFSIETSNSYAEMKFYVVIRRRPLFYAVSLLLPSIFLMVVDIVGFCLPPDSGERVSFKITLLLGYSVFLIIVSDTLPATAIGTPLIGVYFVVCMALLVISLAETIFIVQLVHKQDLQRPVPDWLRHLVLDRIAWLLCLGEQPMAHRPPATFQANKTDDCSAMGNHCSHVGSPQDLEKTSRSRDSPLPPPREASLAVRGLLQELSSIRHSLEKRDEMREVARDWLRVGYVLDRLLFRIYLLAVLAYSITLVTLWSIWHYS
Description: 5-HT3 antagonistic activity: antagonism of Bezold-Jarisch reflex (reflective bradycardia) induced by 5-HT. The data set is classed as in vivo, S.D. male rats. Conditions: for ED50: rat, iv, read-out: ED50 [95% Confidence limits], antagonistic activity against Bezold-Jarisch reflex; for Duration time of 5-HT3 antagonistic activity: i.v., time until inhibitory rate of reflective bradycardia became 20% or less. As for the experimental part:
5-HT3 antagonistic activity:
The 5-HT3 antagonistic activity was measured in accordance with the method by Collins et al. [Br. J. Pharmacol., 80, 570P (1983)] using as an index the inhibitory activity against reflective bradycardia [Bezold-Jarisch reflex] induced by 5-HT.
That is, S.D. male rats (weighing 200 to 350 g) were anesthetized by intraperitoneal administration of urethane ([…]) and introduced with cannula into the carotid and the pulse frequency was measured. 5-HT was dissolved in physiological saline and intravenously administered (0.04 mg/kg). The test compounds were dissolved in physiological saline or physiological saline containing 5% ethanol and intravenously administered five minutes before the administration of 5-HT.
ED50 values were obtained from a dose-response curve of inhibitory rate of reflective bradycardia by the test compounds and the 5-HT3 antagonistic activity was compared.
In addition, the test compounds (about 25 times amount of the above ED50 value) and 5-HT were intravenously administered in the same manner as mentioned above and thereafter 5-HT (0.04 mg/kg) was intravenously administered with the passage of time.

The test system of data set [1] is cisplatin-induced vomiting. Kind of data set: Preventive and therapeutic effects against vomiting induced by cisplatin. The data set is classed as in vivo, male ferrets. Conditions: i.v.; for Inhibitory rate, preventive effect: 5 minutes before cisplatin (10 mg/kg), vomiting counted for 4 hours; for Inhibitory rate, therapeutic effect: after appearance of vomiting (about 80 minutes after cisplatin 10 mg/kg), counted for 4 hours. As for the experimental part:
Preventive and therapeutic effects against vomiting induced by cisplatin:
The experiment was conducted in accordance with the method by Costall et al. [Neuropharmacology, 26, 1321-1326 (1987)].
That is, male ferrets (weighing 1.0 to 1.6 kg, three animals in each group) underwent an implant operation of cannula at the jugular vein for intravenous administration. For evaluating the preventive effects, the test compounds dissolved in a physiological saline or in a physiological saline containing 5% ethanol or a physiological saline (control) were intravenously administered to the ferrets three days after the operation, then after 5 minutes, cisplatin (10 mg/kg) dissolved in a physiological saline was intravenously administered to the ferrets over 30 seconds, and a number of vomiting caused between just after the administration of cisplatin and 4 hours after the administration was measured. As to the therapeutic effects, cisplatin (10 mg/kg) dissolved in a physiological saline was intravenously administered to the ferrets three days after the operation over 30 seconds. After appearance of vomiting (about 80 minutes after the administration of cisplatin), the test compounds dissolved in a physiological saline or in a physiological saline containing 5% ethanol or a physiological saline (control) were intravenously administered to the ferrets and then a number of vomiting occurred during 4 hours thereafter was counted. The inhibitory rate was calculated by the following formula: Inhibitory rate (%)={1-(mean number of vomiting in the group administered with the test compound/mean number of vomiting in the control group)}×100

In another data set the test system is ddY Male mice. Kind of data set: Acute toxicity. The settings on record: 100 mg/kg intravenously; observed for 7 days; five mice per group. The data set is classed as in vivo. An excerpt: The same as in Experiment 2
Data set [2] concerns vomiting caused by the administration of the chemotherapeutics such as cisplatin. The settings on record: Cancer. Chemother. Pharmacol., 23, 389-391 (1989); cited from earlier work.

With `CN1CCN(c2nc3ccccc3n2C)CC1` [Compound A, 1-Methyl-2-(4-methyl-1-piperazinyl)benzimidazole], the “5-HT3 antagonistic activity compared to the compound of the present invention” value at 5-HT3 receptor (in words, reason why duration was not measured) is on record as “quite low as compared to the compound of the present invention”. Further, the ED50 (in general, the dose at which the effect has come halfway, by size or by number of responders) on 5-HT3 receptor is greater than 3 µg/kg.

Turning to `CC(C)n1c(N2CCN(C)CC2)nc2cc(Cl)c(N)cc21` [Compound 1, 6-Amino-5-chloro-1-isopropyl-2-(4-methyl-1-piperazinyl)benzimidazole], on 5-HT3 receptor (dose 1.0 μg/kg), the “Duration time of 5-HT3 antagonistic activity” value (shortened to “Duration time”) is greater than 8 h. In addition, in data set [1] (0.01 mg/kg), the “Inhibitory rate, preventive effect” value was found to be 100% and the “Inhibitory rate, therapeutic effect” value is on record as 100%.

As to `CC(C)n1c(N2CCN(C)CC2)nc2cc(Cl)c(N)cc21.O=C(O)/C=C\C(=O)O.O=C(O)/C=C\C(=O)O` [Compound 2, 6-Amino-5-chloro-1-isopropyl-2-(4-methyl-1-piperazinyl)benzimidazole dimaleate], the “Duration time” value at 5-HT3 receptor (dose 1.0 μg/kg) is greater than 8 h. In data set [1] (0.01 mg/kg), the “Inhibitory rate, preventive effect” value is on record as 85% and the “Inhibitory rate, therapeutic effect” value is listed as 100%.

On to `Cc1nccn1CC1CCc2c(c3ccccc3n2C)C1=O` (centres unmarked) [Reference compound, Ondansetron], for which the “Duration time” value on 5-HT3 receptor (dose 100 μg/kg) was determined as 2 h. In addition, on 5-HT3 receptor, the median effective dose (ED50) is 4 µg/kg. In addition, the Death of animals result in the data set with ddY Male mice is listed as “all animals were dead”. In data set [2], the “Inhibition of vomiting caused by chemotherapeutics such as cisplatin” value is on record as “effective”. Also, in data set [1] (0.1 mg/kg), the “Inhibitory rate, preventive effect” value was 31% and the “Inhibitory rate, therapeutic effect” value was 77%.
